One data set deals with hERG ion channel (Homo sapiens, UniProt Q12809). The data set can be described thus: hERG K+ channel binding assay, displacement of [3H] dofetilide. The conditions noted are these: for Ki (hERG) column, value given as % (1 μM): test concentration 1 μM. Background: hERG is a cardiac potassium channel; its block is linked to QT prolongation.
For data set [1], the system named is Sprague Dawley rats (mechanical allodynia after spinal nerve ligature). Put plainly: Chung model: mononeuropathic pain after spinal nerve ligature (SNL). Particulars: at 5 μg/kg. The class given is in vivo.

pKi: −log10 of the molar value.

The pKi is the negative decadic logarithm of the Ki, by convention in mol/L. Low readings indicate a large Ki, high ones a small Ki. In general, melting point refers to the temperature of the solid-liquid transition.

hERG ion channel, sequence (Q12809 whole entry): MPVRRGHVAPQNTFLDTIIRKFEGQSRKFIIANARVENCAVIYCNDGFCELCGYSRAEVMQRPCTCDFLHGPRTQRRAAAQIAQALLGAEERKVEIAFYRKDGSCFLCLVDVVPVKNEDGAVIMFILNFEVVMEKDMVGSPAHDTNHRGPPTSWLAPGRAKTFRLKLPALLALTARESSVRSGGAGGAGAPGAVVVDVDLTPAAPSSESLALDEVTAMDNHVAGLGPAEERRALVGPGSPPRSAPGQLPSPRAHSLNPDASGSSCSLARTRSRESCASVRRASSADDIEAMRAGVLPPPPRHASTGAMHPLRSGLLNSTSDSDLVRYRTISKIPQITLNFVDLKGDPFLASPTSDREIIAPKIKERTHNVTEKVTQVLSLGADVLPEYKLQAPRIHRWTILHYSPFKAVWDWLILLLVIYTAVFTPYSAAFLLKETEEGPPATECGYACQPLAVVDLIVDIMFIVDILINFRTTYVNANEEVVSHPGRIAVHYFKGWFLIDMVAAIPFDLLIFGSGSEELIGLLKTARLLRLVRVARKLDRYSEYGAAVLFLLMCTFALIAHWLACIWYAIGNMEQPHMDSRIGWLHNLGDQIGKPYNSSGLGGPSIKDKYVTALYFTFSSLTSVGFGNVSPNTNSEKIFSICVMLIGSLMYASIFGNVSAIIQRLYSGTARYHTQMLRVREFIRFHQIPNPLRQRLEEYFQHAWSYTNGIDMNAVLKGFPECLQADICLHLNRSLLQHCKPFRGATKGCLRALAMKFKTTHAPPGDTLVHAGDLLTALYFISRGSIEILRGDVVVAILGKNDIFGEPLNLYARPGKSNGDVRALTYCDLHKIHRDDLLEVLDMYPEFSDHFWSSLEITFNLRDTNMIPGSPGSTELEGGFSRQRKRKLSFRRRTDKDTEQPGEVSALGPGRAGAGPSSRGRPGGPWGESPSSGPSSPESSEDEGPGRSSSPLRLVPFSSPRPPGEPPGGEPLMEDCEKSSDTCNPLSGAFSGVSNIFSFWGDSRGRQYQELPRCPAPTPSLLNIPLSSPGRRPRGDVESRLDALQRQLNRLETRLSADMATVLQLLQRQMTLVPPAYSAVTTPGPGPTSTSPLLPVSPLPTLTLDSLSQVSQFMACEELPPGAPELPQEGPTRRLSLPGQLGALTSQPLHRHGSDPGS

At hERG ion channel, `CN(C)C1(c2ccccc2)CCC2(CC1)NCCc1c2[nH]c2ccccc12` (single isomer, unassigned) [C-2, reference compound] showed a pKi of 6.31. In the case of `CN(C)C1(c2ccccc2)CCC2(CCCc3c2[nH]c2ccccc32)CC1` (single isomer, unassigned) [Ex. 2, N,N-dimethyl-4′-phenyl-2,3,4,9-tetrahydrospiro[carbazole-1,1′-cyclohexane]-4′-amine], the “Ki (hERG) Mean [μM]” value at hERG ion channel is “n.e”. The “SNL Rat, i.v.” value in data set [1] turned out to be 19% MPE. Turning to `CN(C)C1(c2ccccc2)CCC2(CC1)NCCc1c2[nH]c2ccccc12` (single isomer, unassigned) [C-1, reference compound], the “Ki (hERG) column, value given as % (1 μM)” value on hERG ion channel is on record as 19% (1 μM). `CN(C)C1(Cc2ccccc2)CCC2(CCCc3c2[nH]c2ccccc32)CC1` (stereo not drawn) registered a melting point of 174 to 186 °C. For `CN(C)C1(c2ccccc2)CCC2(CCCc3c2[nH]c2ccccc32)CC1` (single isomer, unassigned) [Ex. 1, N,N-dimethyl-4′-phenyl-2,3,4,9-tetrahydrospiro[carbazole-1,1′-cyclohexane]-4′-amine], the “Ki (hERG) column, value given as % (1 μM)” value at hERG ion channel is on record as 13% (1 μM).
